Type in all cases: biochemical
Test [1] concerns the target T1, recombinant human MAO-A (monoamine oxidase-A) (Homo sapiens, UniProt P21397).
T1 construct: purchased Sigma-Aldrich
T1 sequence (P21397 1-527): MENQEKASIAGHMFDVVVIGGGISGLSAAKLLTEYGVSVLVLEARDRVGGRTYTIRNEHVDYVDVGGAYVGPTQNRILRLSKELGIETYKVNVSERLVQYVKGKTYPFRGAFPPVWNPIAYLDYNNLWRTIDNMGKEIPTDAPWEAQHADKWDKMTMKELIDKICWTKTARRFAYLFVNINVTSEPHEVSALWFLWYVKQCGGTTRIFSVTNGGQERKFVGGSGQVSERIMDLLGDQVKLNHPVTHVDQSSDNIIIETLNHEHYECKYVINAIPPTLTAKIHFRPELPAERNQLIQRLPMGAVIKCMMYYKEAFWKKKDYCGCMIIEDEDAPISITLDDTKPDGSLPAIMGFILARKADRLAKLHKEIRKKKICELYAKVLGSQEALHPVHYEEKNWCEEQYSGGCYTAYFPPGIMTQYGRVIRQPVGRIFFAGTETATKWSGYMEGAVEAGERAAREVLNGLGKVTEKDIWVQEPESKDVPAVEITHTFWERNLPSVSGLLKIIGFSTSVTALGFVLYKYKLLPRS
The experiment in a line: Amplex Red HRP-coupled amine oxidase activity evaluation, recombinant human MAO-A. The settings on record: substrate 0.5 mM tyramine; read-out: Inhibitory Activity (IC50, nM) MAO-A. The protocol:
[The source words this procedure for another target and says it was used here with some conditions changed.] (§1) The compounds according to the present technology were evaluated in terms of activity on recombinant human VAP-1 (R&D systems) by measuring the level of hydrogen peroxide in horseradish peroxidase (HRP)-coupled reaction using Amplex Red Hydrogen Peroxide Assay Kit (Molecular Probes, Invitrogen, USA). The experiment was carried out at room temperature using benzylamine as a substrate. In the HRP-coupled reaction, hydrogen peroxide oxidation of 10-acetyl-3,7-dihydroxyphenoxazine (Amplex Red reagent) produces resorufin, which is a highly fluorescent compound. Briefly, the test compound was dissolved in dimethyl sulfoxide (DMSO) at a concentration of 20 mM. The dose-response assessment was made by 1:3 serial dilution in DMSO, thereby creating an 8-point curve. The concentration of the upper part was controlled according to the efficacy of the compounds, followed by dilution with a reaction buffer solution to obtain a final DMSO concentration of less than 1%. To each well of a 96 black well plate, human VAP-1 purified in 50 mM sodium phosphate buffer solution (pH7.4) was added. The test compounds dissolved in DMSO were incubated with the human VAP-1 enzymes at 37° C. for 30 minutes. After 30-minute incubation, each well was added with a reaction mixture containing 200 uM Amplex Red reagent prepared from 50 mM sodium phosphate buffer solution (pH 7.4), 1 mM benzylamine, and 1 U/mL HRP. Fluorescence intensity was measured at several time points during 1-2 hours using a microplate reader (Flexstation3, Molecular Devices) under the wavelength condition exciting at 544 nm and reading the emission at 590 nm. The inhibitory effect of the compounds was measured as a decrease (%) in the signal rate as compared to the control group without any inhibitor (only diluted DMSO). Data was fixed to a logistic model with four variables and IC50 value was calculated using GraphPad Prism program.

The target in test [2] is T2, recombinant human VAP-1 (Homo sapiens, UniProt Q16853).
T2 construct: purchased R&D systems
T2 sequence (Q16853 1-763): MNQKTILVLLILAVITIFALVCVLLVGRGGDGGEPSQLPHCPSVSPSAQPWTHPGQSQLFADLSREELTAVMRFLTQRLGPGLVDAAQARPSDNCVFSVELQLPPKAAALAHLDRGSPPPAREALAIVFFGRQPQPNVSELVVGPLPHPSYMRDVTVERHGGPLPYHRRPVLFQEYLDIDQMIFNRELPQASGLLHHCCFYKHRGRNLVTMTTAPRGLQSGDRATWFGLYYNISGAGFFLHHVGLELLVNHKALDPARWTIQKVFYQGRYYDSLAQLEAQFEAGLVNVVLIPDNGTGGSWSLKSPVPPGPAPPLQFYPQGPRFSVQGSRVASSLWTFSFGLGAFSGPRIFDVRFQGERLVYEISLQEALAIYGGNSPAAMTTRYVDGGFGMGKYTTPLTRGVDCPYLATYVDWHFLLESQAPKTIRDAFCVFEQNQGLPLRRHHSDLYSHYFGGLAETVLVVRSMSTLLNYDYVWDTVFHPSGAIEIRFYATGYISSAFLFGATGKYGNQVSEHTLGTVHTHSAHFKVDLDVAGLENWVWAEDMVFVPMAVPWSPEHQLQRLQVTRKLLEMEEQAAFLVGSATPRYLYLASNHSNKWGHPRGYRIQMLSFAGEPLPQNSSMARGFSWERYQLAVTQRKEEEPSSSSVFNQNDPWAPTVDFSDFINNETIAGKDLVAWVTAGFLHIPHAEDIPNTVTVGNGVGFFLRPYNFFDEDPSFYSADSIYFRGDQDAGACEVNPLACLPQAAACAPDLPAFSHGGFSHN
The experiment in a line: Amplex Red HRP-coupled amine oxidase activity evaluation, recombinant human VAP-1. As to conditions: substrate 1 mM benzylamine; 30 min preincubation at 37° C.; read-out: Inhibitory Activity (IC50, nM) human VAP-1. The protocol: as §1

The target of test [3] is T3, recombinant human DAO (diamine oxidase) (Homo sapiens, UniProt P19801).
T3 construct: purchased R&D systems
T3 sequence (P19801 20-751): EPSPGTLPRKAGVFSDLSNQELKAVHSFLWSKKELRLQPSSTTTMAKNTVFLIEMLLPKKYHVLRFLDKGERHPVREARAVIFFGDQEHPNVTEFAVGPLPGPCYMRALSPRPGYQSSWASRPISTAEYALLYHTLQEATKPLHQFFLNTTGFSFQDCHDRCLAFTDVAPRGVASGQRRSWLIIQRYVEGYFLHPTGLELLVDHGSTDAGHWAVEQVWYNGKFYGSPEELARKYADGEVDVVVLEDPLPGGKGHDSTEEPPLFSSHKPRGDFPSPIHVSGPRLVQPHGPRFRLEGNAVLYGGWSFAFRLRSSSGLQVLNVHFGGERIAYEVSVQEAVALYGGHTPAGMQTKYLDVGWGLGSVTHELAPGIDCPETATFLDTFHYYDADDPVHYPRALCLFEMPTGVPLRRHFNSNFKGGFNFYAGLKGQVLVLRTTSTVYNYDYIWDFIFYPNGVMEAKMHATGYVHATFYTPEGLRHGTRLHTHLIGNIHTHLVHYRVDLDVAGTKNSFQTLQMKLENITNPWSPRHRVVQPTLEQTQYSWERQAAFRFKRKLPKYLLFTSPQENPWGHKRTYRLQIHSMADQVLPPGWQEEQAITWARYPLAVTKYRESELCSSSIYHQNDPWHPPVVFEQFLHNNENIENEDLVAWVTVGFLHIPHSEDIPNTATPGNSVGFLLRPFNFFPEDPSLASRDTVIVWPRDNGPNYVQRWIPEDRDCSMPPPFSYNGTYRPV
The test is described as follows: Amplex Red HRP-coupled amine oxidase activity evaluation, recombinant human DAO. The procedure: [The source words this procedure for another target and says it was used here with some conditions changed.] as §1

The target in test [4] is T4, recombinant human MAO-B (monoamine oxidase-B) (Homo sapiens, UniProt P27338).
T4 construct: purchased Sigma-Aldrich
T4 sequence (P27338 1-520): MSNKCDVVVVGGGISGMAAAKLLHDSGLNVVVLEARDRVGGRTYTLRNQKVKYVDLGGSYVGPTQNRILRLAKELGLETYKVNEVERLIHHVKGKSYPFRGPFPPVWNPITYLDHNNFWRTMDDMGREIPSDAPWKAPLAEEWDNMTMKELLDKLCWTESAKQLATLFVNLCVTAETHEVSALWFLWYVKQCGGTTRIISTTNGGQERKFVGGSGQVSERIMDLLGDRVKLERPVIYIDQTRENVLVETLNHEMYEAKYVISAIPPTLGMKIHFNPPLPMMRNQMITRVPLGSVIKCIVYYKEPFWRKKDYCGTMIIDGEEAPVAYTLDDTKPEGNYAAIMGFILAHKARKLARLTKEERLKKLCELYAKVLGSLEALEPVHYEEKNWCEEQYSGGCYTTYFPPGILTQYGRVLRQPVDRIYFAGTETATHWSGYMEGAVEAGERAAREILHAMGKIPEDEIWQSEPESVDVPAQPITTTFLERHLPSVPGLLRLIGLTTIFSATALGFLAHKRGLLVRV
The experiment in a line: Amplex Red HRP-coupled amine oxidase activity evaluation, recombinant human MAO-B. As to conditions: substrate 1 mM benzylamine; read-out: Inhibitory Activity (IC50, nM) MAO-B. The procedure: [The source words this procedure for another target and says it was used here with some conditions changed.] as §1

Setting [5] is: substrate 1 mM putrescine, read-out: Inhibitory Activity (IC50, nM) DAO.

Consider ten compounds from US12110279B2, “Triazolones, tetrazolones, and imidazolones, or their salts, and pharmaceutical compositions comprising the same” (Yuhan Corporation, priority 2021, dated 2024).

Counter-ions that a name gives are not always drawn. Like-named read-outs stand apart in the source and are kept apart here. Bounds are passed on as bounds.

Usually IC50 stands for the concentration needed to halve the response being measured. In the case of `CCn1cc(-c2ccc(Cn3c(C)nn(CC(CN)=C(F)F)c3=O)s2)cn1` [Example 1, 2-[2-(aminomethyl)-3,3-difluoro-allyl]-4-[[5-(1-ethylpyrazol-4-yl)-2-thienyl]methyl]-5-methyl-1,2,4-triazol-3-one trifluoroacetate], the IC50 in test [1] was more than 100000 nM; in test [2], 1.7 nM; in test [3] (setting [5]), more than 100000 nM; in test [4], more than 100000 nM.

For `Cc1nn(CC(CN)=C(F)F)c(=O)n1Cc1ccc(-c2ccc(S(C)(=O)=O)cc2)s1` [Example 2, 2-[2-(aminomethyl)-3,3-difluoro-allyl]-5-methyl-4-[[5-(4-methylsulfonylphenyl)-2-thienyl]methyl]-1,2,4-triazol-3-one trifluoroacetate], the IC50 in test [1] was more than 100000 nM; in test [2], 1.8 nM; in test [3] (setting [5]), more than 100000 nM; in test [4], more than 100000 nM.

On to `Cc1nn(CC(CN)=C(F)F)c(=O)n1Cc1ccc(-c2ccc(N3CCNCC3)cc2)s1` [Example 3, 2-[2-(aminomethyl)-3,3-difluoro-allyl]-5-methyl-4-[[5-(4-piperazin-1-ylphenyl)-2-thienyl]methyl]-1,2,4-triazol-3-one di-trifluoroacetate], for which the IC50 in test [1] is more than 100000 nM; in test [2], 18 nM; in test [3] (setting [5]), more than 100000 nM; in test [4], more than 100000 nM.

As to `CCn1cc(-c2ccc(Cn3c(C)nn(CC(CN)=C(F)F)c3=O)s2)ccc1=O` [Example 4, 5-[5-[[1-[2-(aminomethyl)-3,3-difluoro-allyl]-3-methyl-5-oxo-1,2,4-triazol-4-yl]methyl]-2-thienyl]-1-ethyl-pyridin-2-one trifluoroacetate], the IC50 in test [1] is more than 100000 nM; in test [2], 1.5 nM; in test [3] (setting [5]) it was more than 100000 nM; in test [4] it was more than 100000 nM.

For the compound `Cc1nn(CC(CN)=C(F)F)c(=O)n1Cc1ccc(-c2ccc(N(C)C)nc2)s1` [Example 5, 2-[2-(aminomethyl)-3,3-difluoro-allyl]-4-[[5-[6-(dimethylamino)-3-pyridyl]-2-thienyl]methyl]-5-methyl-1,2,4-triazol-3-one trifluoroacetate], the 50% inhibitory concentration (IC50) in test [1] was more than 100000 nM; in test [2] it was 2 nM; in test [3] (setting [5]) it was more than 100000 nM; in test [4], more than 100000 nM.

As for `Cc1nn(CC(CN)=C(F)F)c(=O)n1Cc1ccc(-c2ccc3c(c2)OCO3)s1` [Example 6, 2-[2-(aminomethyl)-3,3-difluoro-allyl]-4-[[5-(1,3-benzodioxol-5-yl)-2-thienyl]methyl]-5-methyl-1,2,4-triazol-3-one trifluoroacetate], the IC50 in test [1] is more than 100000 nM; in test [2], 2.5 nM; in test [3] (setting [5]), more than 100000 nM; in test [4], more than 100000 nM.

As to `Cc1cc(-c2ccc(Cn3c(C)nn(CC(CN)=C(F)F)c3=O)s2)cc2c1NC(=O)CC2` [Example 7, 6-[5-[[1-[2-(aminomethyl)-3,3-difluoro-allyl]-3-methyl-5-oxo-1,2,4-triazol-4-yl]methyl]-2-thienyl]-8-methyl-3,4-dihydro-1H-quinolin-2-one trifluoroacetate], the IC50 in test [1] was more than 100000 nM; in test [2], 1 nM; in test [3] (setting [5]) it was more than 100000 nM; in test [4] it was more than 100000 nM.

With `Cc1nn(CC(CN)=C(F)F)c(=O)n1Cc1ccc(-c2ccc3c(c2)CCC(=O)N3C)s1` [Example 8, 6-[5-[[1-[2-(aminomethyl)-3,3-difluoro-allyl]-3-methyl-5-oxo-1,2,4-triazol-4-yl]methyl]-2-thienyl]-1-methyl-3,4-dihydroquinolin-2-one trifluoroacetate], the IC50 in test [1] is more than 100000 nM; in test [2] it was 1 nM; in test [3] (setting [5]), more than 100000 nM; in test [4], more than 100000 nM.

For `CCn1cc(-c2ccc(-n3nnn(CC(CN)=C(F)F)c3=O)s2)ccc1=O` [Example 9, 5-[5-[4-[2-(aminomethyl)-3,3-difluoro-allyl]-5-oxo-tetrazol-1-yl]-2-thienyl]-1-ethyl-pyridin-2-one trifluoroacetate], the half-maximal inhibitory concentration (IC50) is more than 100000 nM in test [1], 0.4 nM in test [2], 3.1 nM in test [3] (setting [5]) and 203 nM in test [4].

`CS(=O)(=O)c1ccc(-c2cccc(-n3nnn(CC(CN)=C(F)F)c3=O)c2)cc1` [Example 10, 1-[2-(aminomethyl)-3,3-difluoro-allyl]-4-[3-(4-methylsulfonylphenyl)phenyl]tetrazol-5-one trifluoroacetate]: the IC50 was more than 100000 nM in test [1], 0.4 nM in test [2], 2.2 nM in test [3] and 53200 nM in test [4].
